Reference: patent publication US5733908A, “Tetracyclic 1,4-oxazine compounds” (Adir Et Compagnie, priority 1995, dated 1998)

System: male Wistar rats, hypothermia induced by the D3 dopaminergic agonist 7-OH-DPAT
Experiment: Hypothermia in the rat induced by the D3 agonist 7-OH-DPAT (reversal test)
Assay type: in vivo
Conditions: for ΔT°C. (rectal temperature vs base values): measured 30 min after, mean ± sem, n ≥ 5
Text: That selectivity makes the compounds of the present invention valuable especially for use as medicaments that act on the dopaminergic system without causing the undesirable effects of D2 ligands.
In vivo: by the capacity of the products of the invention to modulate hypothermia induced in the rat by the D3 dopaminergic agonist: 7-OH-DPAT.
1.2 In vivo - Hypothermia in the rat
The tests were carded out on male Wistar rats weighing 200-250 g placed in individual cages with free access to food and water. The products were dissolved in distilled water to which several drops of lactic acid are added. The injections were effected in a volume of 1.0 ml/kg by the subcutaneous route. The doses are expressed in terms of the base. The rectal temperature of the rats was recorded using a digital thermistoprobe (Millan et al, I.P.E.T., 1993, 264, p. 1364-1376). During a first period, the rats were injected with the compound to be tested or the carrier, and were then put back in their cages for 30 minutes. The rats were then given an injection of 7-OH-DPAT (0.16 mg/kg) and were placed in their cages again. Thirty minutes later, the rectal temperature was measured and the difference was determined by comparison with the base values (.increment.T° C.). The inhibitory dose (95 % confidence limits) for reducing the effect of the 7-OH-DPAT by 50 % was calculated according to the Finney method (Statistical Method in Biological Assays, 2nd ed., Hafner Publishing, New York, 1964).

SMILES | ED50 (Rattus norvegicus, sc, 7-OH-DPAT 0.16 mg/kg, Finney method, 95 % confidence limits in brackets, read-out: inhibitory dose (ID50) (95 % C.L.) for reducing the effect of 7-OH-DPAT by 50 %) [mg/kg] | ΔT°C. (rectal temperature vs base values) (injection 1: product 0.16 mg/kg s.c., injection 2: 7-OH-DPAT 0.16 mg/kg 30 min later) [°C] | ΔT°C. (rectal temperature vs base values) (injection 1: carrier, injection 2: 7-OH-DPAT 0.16 mg/kg s.c.) [°C]
CCCN1CCO[C@@H]2c3cc4c(cc3CC[C@H]21)CCS4 (relative stereo) [Example 2, Trans-3,4,4a,5,6,8,9,11b-octahydrothieno[2,3-b]-1,4-oxazino[3,2-h]-4-propyl-2H-naphthalene] | 0.41 | -1.48 ± 0.44 | –
CCCN(CCC)C1CCc2ccc(O)cc2C1 (stereo not drawn) [Example 7-OH-DPAT, reference compound] | – | – | -1.66 ± 0.07
